{
  "source": "patent EP0295827A2",
  "about": "“Use of 24,25-dihydroxy-cholecalciferol in mending bone fractures” (priority 1987, dated 1988)",
  "system": "rabbits suffering fracture",
  "assay": "Fibula fracture model: strength test (bending test)",
  "format": "in vivo, Japanese white house rabbits",
  "conditions": "100 µg/kg oral, average value ± standard deviation",
  "from_the_text": "The right fibulae of mature house rabbits (Japanese white house rabbits having a weight of about 3 kg) were broken at the central portions under anesthetic with a dental hand drill. Each of the house rabbits was kept in a separate cage and was allowed to take an ordinary solid food (CR-1, produced by Nippon Clare Corp.) and city water freely. 24R,25-(OH)₂-D₃ and 24S,25-(OH)₂-D₃ were dispersed in an aqueous 0.5% CMC solution and orally administered to the house rabbits through a rubber catheter. The experimental groups were as follows:\nThe respective medicines or aqueous 0.5% CMC solution was administered to these house rabbits for 3 weeks or 6 weeks after the bones had been broken. Thereafter, the house rabbits were killed and the fibulae were taken out for X-ray inspection and a strength test (bending test by DDV-VMF produced by Toyo Baldwin Co., Ltd.).",
  "data": [
    {"smiles": "C=C1CC[C@H](O)C/C1=C/C=C1\\CCC[C@]2(C)[C@@H]([C@H](C)CC[C@H](O)C(C)(C)O)CC[C@@H]12", "note": "[24S,25-(OH)₂-D₃]", "values": [
      {"measurement": "Bending strength", "setting": "3 weeks after", "result": 15, "unit": "N/mm"},
      {"measurement": "Bending strength", "setting": "6 weeks after", "result": "81 ± 37", "unit": "N/mm"}
    ]}
  ]
}
